Test [1] deals with T1, cardiac muscle myosin S2 peptide wild-type (MYH7) (Homo sapiens, UniProt P12883).
T1 construct: The 19 residue peptide was chemically synthesized; purchased BioSynthesis; Inc; host or cells: chemical synthesis
Kind of test: FRET of cardiac muscle myosin S2 peptide dimer with anti-S2 peptides. As to conditions: Cardiac peptide with Stabilizer. The test is classed as binding. The source says:
A small region of myosin subfragment 2 (S2) region of human β-cardiac myosin (MYH7) was selected to be synthesized by BioSynthesis; Inc. The region was selected based on mutations found within this region causing Familial hypertrophic cardiomyopathy (FHC) (Richard et al., 2003). The mutations are located within proximal region of myosin S2 specifically region of 921-939 (FIG. 7). Myosin S2 is an intrinsically unstable coiled coil and the sequence of this region was acquired from Protein Data Bank (PDB). The 19 residue peptide was chemically synthesized. Generated amino acid sequence used is as follow:
Chelate-lanthanide complex was utilized as the donor probe, which is composed of a lanthanide, an antenna, and a chelate. Organic chromophore antenna ([…]) will absorb a photon of light, and it will transfer energy to lanthanide ion (terbium III). This probe excites at 248 nm and emits at 547 nm.
Fluorescein was used as the acceptor probe. […]
In this experiment, luminescence spectrometer, AMNICO-BOWMAN SERIES 2 SPECTROMETER™, was used to detect resonance energy transfer. […] Emission signal generated from decay of molecules was detected by a photomultiplier tube, which contains proper color filters to detect the emitted photons.
FRET measured the dissociation constant (binding affinity) between the myosin S2 dimers and the anti-S2 peptides. […]

The target in test [2] is T2, cardiac muscle myosin S2 mutant peptide E930del (MYH7) (Homo sapiens, UniProt P12883, DEL930-930).
T2 construct: cardiac muscle myosin S2 peptides region 921 to 939; host or cells: chemical synthesis
Kind of test: FRET of E930del mutant cardiac myosin S2 peptide dimer with stabilizer. The test is classed as binding. An excerpt: This mutation cause mechanical instability and unstable coiled coil. Again the sequence of this mutation was obtained using PDB. An 18 residue peptide of this region was chemically synthesized. Generated amino acid sequence used is as follow: • E930del: NH2-[…]—COOH (SEQ ID NO:8)
Resonance energy probes (donor and acceptor) were covalently attached to synthetic myosin S2 peptides of cardiac muscle, E930del cardiac muscle, E924K cardiac muscle, smooth muscle, and skeletal muscle (Aboonasrshiraz, N., 2020).
Acceptor probe was conjugated to muscle myosin S2 peptides at N-terminus. Muscle myosin S2 peptides were dissolved in 20 mM HEPES buffer at pH 8.0. And FITC was dissolved in few drops of N, N dimethyl formamide. Lastly, FITC and muscle myosin S2 peptide was reacted together in 1 to 1 molar ratio and was let to react for 120 minutes at room temperature. The FITC conjugated S2 peptides were purified using […]. […]
In FRET assay, Fluorescein Isothiocyanate (FITC) functioned as fluorescent acceptor probe and Terbium Diethylene Triamine Pentaacetic Acid-Cytosine (Lanthanide-DTPA-Cytosine) functioned as donor probe. […] Lifetime of donor probe was measured in milliseconds.
In FRET assay, like E924K, Edel930 was treated with different concentrations of the stabilizer. […] Calculated separation distance in presence of the stabilizer peptide was 3.38 nm.

The values below come from patent publication US12617818B2, “Compositions and methods for modulating myosin subfragment-2 coiled coil stability and methods for using them” (UNIVERSITY OF NORTH TEXAS, priority 2020, dated 2026).

Turning to `C[C@H](NC(=O)[C@H](CCCCN)NC(=O)[C@H](Cc1ccccc1)NC(=O)[C@H](CCCCN)NC(=O)[C@H](CCCCN)NC(=O)[C@H](CCCCN)NC(=O)[C@H](CCCCN)NC(=O)[C@H](CCCCN)NC(=O)[C@H](CCCCN)NC(=O)[C@H](CCCCN)NC(=O)[C@@H](N)CCCCN)C(=O)N[C@@H](CCCCN)C(=O)N[C@@H](CCCCN)C(=O)N[C@@H](CCCCN)C(=O)N[C@@H](CCCCN)C(=O)N[C@@H](CCCCN)C(=O)N[C@@H](CCCCN)C(=O)O` [Stabilizer], the results for the “TD (donor lifetime without acceptor)” value in test [1] and in test [2] were 1.73E−03 and 1.89E−03, respectively.
